Assay results published in patent US20090048233A1, “Enhancing the Tolerability of a Seratonin Antagonist and a NSRI, a SNRI or a RIMA by Using Them in Combination” (CYPRESS BIOSCIENCES, INC., priority 2007, published 2009).

Assays:
normal, health subjects [1] = test: Example 1A tolerability study, mirtazapine and 1S,2R-enriched milnacipran; conditions: 6 weeks, milnacipran with 1S,2R:1R,2S ratio about 55:45 to 90:10
Procedure: (§1) The subjects receive 2 capsules per day, one in the morning and one at bedtime. […] All medications are administered in an over-encapsulated format that ensures blinding of study participants, staff and investigators. All subjects are scheduled to receive a total of 6 weeks of therapy, and are required to return to the clinics after 1, 2, 4 and 6 weeks of therapy. Patients are required to complete paper self-assessments, electronic diary assessments, computer based cognitive testing, as well as vital signs and weight assessments at the clinic visits.

normal, health subjects [2] = test: Example 4 tolerability study, mirtazapine and milnacipran; conditions: 6 weeks, 15 mg mirtazapine or 50 mg milnacipran
Procedure: as §1

normal, health subjects [3] = test: Example 1 tolerability study, mirtazapine and milnacipran or duloxetine; conditions: 6 weeks, 15 mg mirtazapine or 100 mg milnacipran or duloxetine
Procedure: as §1

[4] = test system: reuptake of noradrenaline and serotonin; conditions: in vivo; cited from earlier work
normal, health subjects [5] = test: Example 5 tolerability study, mirtazapine and duloxetine; assay type: in vivo, human; conditions: 6 weeks, 15 mg mirtazapine or 30 mg duloxetine
[6] = controlled studies; cited from earlier work
[7] = test system: patients with fibromyalgia; conditions: open study; cited from earlier work
[8] = test system: chronic tension type headache; conditions: controlled trial; cited from earlier work
[9] = test system: cancer patients with pain; conditions: open trial in cancer pain, 15 and 30 mg; cited from earlier work

Row | Structure (SMILES) | side effects of the drug alone (normal, health subjects [1]) | side effects of the drug alone (normal, health subjects [2]) | side effects of the drug alone (normal, health subjects [3]) | potency for inhibiting the reuptake of both noradrenaline and serotonin [4] | side effects of the drug alone (normal, health subjects [5]) | appetite increase reported, share of patients [6] | weight gain of greater than or equal to 7% of body weight reported, share of patients [6] | activity in fibromyalgia pain [7] | efficacy in chronic tension type headache [8] | depression levels [9] | pain intensity [9]
1 | CCN(CC)C(=O)[C@@]1(c2ccccc2)C[C@H]1CN (racemic) [milnacipran, cis-(±)-2-(aminomethyl)-N,N-diethyl-1-phenylcyclopropanecarboxamide] | causes insomnia, nausea/vomiting, and weight loss | causes insomnia, nausea/vomiting, and weight loss | causes insomnia, nausea/vomiting, and weight loss | nearly equal potency | – | – | – | – | – | – | –
2 | CNCC[C@H](Oc1cccc2ccccc12)c1cccs1 [duloxetine, (+)-(S)—N-methyl-3-(1-naphthyloxy)-3-(thiophen-2-yl)-propan-1-amine] | causes insomnia, nausea/vomiting, and weight loss | causes insomnia, nausea/vomiting, and weight loss | causes insomnia, nausea/vomiting, and weight loss | – | causes insomnia, nausea/vomiting, and weight loss | – | – | – | – | – | –
3 | CN(C)CCC=C1c2ccccc2CCc2ccccc21 [amitriptyline] | – | – | – | – | – | 6% | 5.9% | – | – | – | –
4 | CN1CCN2c3ncccc3Cc3ccccc3C2C1 (stereo not drawn) [mirtazapine, 1,2,3,4,10,14b-hexahydro-2-methylpyrazino [2,1-a]pyrido[2,3-c]benzazepine] | does cause weight gain, sedation, and cognitive deficits | does cause weight gain, sedation, and cognitive deficits | does cause weight gain, sedation, and cognitive deficits | – | does cause weight gain, sedation, and cognitive deficits | – | – | has some activity in fibromyalgia pain | suggested efficacy in chronic tension type headache | significant improvements were obtained in depression levels | pain intensity was not statistically improved
